Test results as given in patent US20210315840A1, “SOLID ORAL DOSAGE FORMS OF KETAMINE DERIVATIVES” (priority 2017, published 2021).
Where two headings read alike, the source gives them in different places.

What was measured:
[1] = molecular target: CYP2C19 (Homo sapiens, UniProt P33261); test: CYP inhibition assay CYP2C19; type: in vitro ADME
From the text: (§1) Cytochrome P450s (CYPs) are a family of enzymes that play a primary role in the metabolism of a wide variety of drugs. 2R,6R-hydroxynorketamine was investigated for its potential to inhibit the action of 7 key CYP enzymes using an inhibition assay measuring reduction in the formation of metabolites compared to control.

[2] = test system: cryopreserved hepatocytes; test: Hepatocyte stability assay, human
Method: (§3) Test compound (3 μM) was incubated with cryopreserved hepatocytes in suspension. Samples are removed at 6 time points over the course of 120 minutes and analysed by LC-MS/MS.

[3] = test system: Caco-2
[4] = molecular target: UGT1A1 (Homo sapiens, UniProt P22309); test: UGT inhibition assay UGT1A1; type: in vitro ADME
From the text: 2R,6R-hydroxynorketamine was therefore investigated for its potential to inhibit this isozyme, along with that of the major UGT isozyme, UGT1A1, using a UGT inhibition assay.

[5] = molecular target: CYP3A4 (Homo sapiens, UniProt P08684); test: CYP inhibition assay CYP3A4, substrate midazolam; type: in vitro ADME; conditions: for % Inhibition: Substrate = midazolam
CYP3A4, sequence (P08684 whole entry): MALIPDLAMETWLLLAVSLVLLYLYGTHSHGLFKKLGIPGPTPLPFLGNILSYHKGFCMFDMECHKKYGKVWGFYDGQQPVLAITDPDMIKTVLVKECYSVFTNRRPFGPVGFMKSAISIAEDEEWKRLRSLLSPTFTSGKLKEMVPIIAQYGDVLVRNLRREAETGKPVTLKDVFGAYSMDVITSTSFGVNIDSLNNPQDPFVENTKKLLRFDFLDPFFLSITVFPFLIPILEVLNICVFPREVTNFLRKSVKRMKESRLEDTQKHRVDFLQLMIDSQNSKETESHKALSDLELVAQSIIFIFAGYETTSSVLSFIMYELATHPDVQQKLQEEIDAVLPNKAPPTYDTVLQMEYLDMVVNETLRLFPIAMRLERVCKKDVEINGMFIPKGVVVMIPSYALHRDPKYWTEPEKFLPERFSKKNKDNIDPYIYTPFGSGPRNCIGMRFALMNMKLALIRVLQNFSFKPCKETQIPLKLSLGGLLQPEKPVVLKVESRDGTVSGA
From the text: as §1

[6] = molecular target: T1, CYP2C8 (Homo sapiens, UniProt P10632); test: CYP inhibition assay CYP2C8; type: in vitro ADME
T1 sequence (P10632 1-490): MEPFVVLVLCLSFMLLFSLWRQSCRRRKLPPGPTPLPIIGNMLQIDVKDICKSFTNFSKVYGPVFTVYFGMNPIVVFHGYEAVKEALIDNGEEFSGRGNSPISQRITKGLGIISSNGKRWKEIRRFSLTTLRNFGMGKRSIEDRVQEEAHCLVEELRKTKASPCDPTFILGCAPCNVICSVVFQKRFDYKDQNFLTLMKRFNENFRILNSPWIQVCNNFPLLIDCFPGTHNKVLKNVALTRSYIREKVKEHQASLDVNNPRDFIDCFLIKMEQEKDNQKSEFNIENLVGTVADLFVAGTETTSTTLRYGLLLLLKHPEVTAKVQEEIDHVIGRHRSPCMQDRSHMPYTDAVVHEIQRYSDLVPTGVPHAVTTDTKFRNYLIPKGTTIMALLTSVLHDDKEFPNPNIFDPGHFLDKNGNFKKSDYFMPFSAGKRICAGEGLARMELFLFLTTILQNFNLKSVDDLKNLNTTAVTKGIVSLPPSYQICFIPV
From the text: as §1

[7] = test system: cryopreserved hepatocytes; test: Hepatocyte stability assay, dog; conditions: 3 μM
Method: as §3

[8] = molecular target: dopamine transporter (Homo sapiens, UniProt Q01959); test: Binding assay dopamine transporter
dopamine transporter, sequence (Q01959 whole entry): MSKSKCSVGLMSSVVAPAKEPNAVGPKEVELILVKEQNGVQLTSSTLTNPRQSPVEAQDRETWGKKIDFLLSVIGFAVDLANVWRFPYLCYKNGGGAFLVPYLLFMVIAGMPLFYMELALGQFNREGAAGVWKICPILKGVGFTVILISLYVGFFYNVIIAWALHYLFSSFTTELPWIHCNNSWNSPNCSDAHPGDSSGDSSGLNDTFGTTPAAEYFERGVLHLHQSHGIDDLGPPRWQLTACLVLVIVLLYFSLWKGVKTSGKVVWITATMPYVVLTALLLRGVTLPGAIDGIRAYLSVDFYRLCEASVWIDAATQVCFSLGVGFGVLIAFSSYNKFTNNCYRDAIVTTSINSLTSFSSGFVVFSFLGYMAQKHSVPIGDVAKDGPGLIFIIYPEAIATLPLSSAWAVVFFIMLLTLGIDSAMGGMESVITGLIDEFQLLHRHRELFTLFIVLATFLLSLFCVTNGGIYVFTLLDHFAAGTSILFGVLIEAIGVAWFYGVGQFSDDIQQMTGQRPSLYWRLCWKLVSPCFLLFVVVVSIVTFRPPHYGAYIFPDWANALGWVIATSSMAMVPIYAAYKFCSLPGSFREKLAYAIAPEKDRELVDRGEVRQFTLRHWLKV
From the text: (§2) 2R,6R-hydroxynorketamine was investigated for binding to monoamine oxidases A and B, monoamine transporters, as well as a variety of 5HT receptors.

[9] = molecular target: 5-HT transporter (Homo sapiens, UniProt P31645); test: Binding assay 5-HT transporter
5-HT transporter, sequence (P31645 whole entry, species assumed): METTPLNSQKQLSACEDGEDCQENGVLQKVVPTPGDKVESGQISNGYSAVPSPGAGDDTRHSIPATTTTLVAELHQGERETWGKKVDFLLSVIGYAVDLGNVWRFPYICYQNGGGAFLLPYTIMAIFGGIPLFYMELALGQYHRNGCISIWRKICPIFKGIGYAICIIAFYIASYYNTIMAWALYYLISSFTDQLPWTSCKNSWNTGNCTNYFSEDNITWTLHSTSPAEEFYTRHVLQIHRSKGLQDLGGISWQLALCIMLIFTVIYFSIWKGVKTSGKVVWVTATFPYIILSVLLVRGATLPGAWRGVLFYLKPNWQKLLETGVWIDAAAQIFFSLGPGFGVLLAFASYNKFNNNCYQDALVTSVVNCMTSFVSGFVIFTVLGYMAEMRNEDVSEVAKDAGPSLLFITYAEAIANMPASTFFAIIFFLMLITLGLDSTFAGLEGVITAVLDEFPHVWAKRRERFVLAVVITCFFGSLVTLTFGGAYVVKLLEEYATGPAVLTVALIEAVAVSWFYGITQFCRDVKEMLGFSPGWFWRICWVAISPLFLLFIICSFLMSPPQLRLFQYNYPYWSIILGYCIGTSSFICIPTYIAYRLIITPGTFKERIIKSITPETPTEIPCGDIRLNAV
From the text: as §2

[10] = molecular target: MAO-A (Homo sapiens, UniProt P21397); test: Binding assay MAO-A
MAO-A, sequence (P21397 whole entry, species assumed): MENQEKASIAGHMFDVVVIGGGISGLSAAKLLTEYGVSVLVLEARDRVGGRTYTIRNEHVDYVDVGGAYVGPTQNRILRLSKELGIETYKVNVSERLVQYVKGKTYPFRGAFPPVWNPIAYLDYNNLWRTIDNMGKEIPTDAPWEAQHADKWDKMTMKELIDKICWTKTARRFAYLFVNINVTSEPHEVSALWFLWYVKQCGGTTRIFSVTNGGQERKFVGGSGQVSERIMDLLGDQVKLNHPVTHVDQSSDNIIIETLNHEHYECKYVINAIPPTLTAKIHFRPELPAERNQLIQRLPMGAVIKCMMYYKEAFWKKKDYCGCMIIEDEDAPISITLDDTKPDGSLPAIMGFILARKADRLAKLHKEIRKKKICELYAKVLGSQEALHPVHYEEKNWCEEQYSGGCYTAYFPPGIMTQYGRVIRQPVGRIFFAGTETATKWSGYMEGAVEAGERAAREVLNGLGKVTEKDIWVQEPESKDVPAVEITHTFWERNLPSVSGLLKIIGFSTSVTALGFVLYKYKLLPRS
From the text: as §2

[11] = molecular target: UGT2B7 (Homo sapiens, UniProt P16662); test: UGT inhibition assay UGT2B7; type: in vitro ADME
UGT2B7, sequence (P16662 24-529): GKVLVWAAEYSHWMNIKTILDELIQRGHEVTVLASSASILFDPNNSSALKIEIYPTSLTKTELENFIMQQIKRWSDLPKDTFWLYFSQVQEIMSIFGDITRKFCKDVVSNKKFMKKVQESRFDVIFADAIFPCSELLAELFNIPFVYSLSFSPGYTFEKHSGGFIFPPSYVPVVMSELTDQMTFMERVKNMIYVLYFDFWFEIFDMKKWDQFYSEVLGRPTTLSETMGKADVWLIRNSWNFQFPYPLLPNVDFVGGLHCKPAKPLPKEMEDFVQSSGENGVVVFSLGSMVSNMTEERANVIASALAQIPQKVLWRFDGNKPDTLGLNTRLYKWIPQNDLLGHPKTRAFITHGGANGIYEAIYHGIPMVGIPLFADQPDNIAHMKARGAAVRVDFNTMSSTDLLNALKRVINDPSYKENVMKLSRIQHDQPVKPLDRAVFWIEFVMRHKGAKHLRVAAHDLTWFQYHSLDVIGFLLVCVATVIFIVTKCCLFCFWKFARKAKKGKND

[12] = molecular target: CYP2C9 (Homo sapiens, UniProt P11712); test: CYP inhibition assay CYP2C9; type: in vitro ADME
CYP2C9, sequence (P11712 whole entry): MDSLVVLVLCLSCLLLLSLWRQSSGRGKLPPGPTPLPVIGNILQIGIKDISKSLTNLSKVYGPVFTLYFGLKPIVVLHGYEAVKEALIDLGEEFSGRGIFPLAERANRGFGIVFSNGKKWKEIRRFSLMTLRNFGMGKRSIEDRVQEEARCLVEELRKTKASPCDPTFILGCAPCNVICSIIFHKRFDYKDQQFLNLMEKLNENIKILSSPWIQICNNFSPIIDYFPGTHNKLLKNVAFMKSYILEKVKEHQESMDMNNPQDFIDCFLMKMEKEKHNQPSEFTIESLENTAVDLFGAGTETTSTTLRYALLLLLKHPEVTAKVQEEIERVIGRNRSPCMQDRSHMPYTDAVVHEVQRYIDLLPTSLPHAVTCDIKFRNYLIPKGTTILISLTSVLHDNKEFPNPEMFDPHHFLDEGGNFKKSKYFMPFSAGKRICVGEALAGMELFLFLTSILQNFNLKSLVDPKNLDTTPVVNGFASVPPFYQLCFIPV
From the text: as §1

[13] = molecular target: 5-HT2B (Homo sapiens, UniProt P41595); test: Binding assay 5-HT2B
5-HT2B, sequence (P41595 whole entry, species assumed): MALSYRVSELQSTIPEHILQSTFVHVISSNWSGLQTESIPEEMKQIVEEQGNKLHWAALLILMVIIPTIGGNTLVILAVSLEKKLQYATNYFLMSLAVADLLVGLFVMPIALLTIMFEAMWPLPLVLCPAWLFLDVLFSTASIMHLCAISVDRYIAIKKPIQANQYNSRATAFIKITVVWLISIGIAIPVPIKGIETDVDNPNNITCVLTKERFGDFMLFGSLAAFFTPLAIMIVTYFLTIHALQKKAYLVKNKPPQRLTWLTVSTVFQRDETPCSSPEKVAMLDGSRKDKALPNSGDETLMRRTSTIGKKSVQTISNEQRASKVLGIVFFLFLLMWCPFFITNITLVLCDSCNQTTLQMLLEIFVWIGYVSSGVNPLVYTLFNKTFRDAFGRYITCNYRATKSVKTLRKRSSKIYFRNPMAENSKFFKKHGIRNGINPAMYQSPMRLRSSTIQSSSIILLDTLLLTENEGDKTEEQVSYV
From the text: as §2

[14] = molecular target: T2, 5-HT2C (Homo sapiens, UniProt P28335); test: Binding assay 5-HT2C
T2 sequence (P28335 33-458): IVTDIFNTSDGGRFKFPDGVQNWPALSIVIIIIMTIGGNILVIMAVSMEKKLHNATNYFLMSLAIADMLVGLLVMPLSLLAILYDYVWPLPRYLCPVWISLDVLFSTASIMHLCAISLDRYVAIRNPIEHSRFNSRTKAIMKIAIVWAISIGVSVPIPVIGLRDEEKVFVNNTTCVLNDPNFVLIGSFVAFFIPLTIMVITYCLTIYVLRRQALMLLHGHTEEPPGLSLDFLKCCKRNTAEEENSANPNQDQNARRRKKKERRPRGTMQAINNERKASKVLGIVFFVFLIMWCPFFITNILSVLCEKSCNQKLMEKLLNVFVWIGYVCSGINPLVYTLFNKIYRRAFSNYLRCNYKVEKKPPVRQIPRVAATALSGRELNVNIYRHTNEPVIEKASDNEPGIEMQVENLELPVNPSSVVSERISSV
From the text: as §2

[15] = DSC compatibility with excipients and capsule shells
[16] = molecular target: CYP2D6 (Homo sapiens, UniProt P10635); test: CYP inhibition assay CYP2D6; type: in vitro ADME
CYP2D6, sequence (P10635 whole entry): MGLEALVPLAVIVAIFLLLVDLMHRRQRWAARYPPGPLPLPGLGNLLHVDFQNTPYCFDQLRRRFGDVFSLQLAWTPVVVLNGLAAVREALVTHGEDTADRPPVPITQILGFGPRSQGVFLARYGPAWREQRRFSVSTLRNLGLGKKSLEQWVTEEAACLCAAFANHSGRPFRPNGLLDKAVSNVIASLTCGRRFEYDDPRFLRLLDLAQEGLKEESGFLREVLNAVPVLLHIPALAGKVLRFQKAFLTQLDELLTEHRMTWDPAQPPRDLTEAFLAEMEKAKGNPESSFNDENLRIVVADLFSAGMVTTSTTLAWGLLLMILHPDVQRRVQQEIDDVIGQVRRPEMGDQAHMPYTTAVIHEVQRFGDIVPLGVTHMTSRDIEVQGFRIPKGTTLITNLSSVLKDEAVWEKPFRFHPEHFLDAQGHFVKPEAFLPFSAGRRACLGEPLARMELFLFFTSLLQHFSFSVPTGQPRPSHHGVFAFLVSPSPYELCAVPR
From the text: as §1

CYP2C19, sequence (P33261 whole entry): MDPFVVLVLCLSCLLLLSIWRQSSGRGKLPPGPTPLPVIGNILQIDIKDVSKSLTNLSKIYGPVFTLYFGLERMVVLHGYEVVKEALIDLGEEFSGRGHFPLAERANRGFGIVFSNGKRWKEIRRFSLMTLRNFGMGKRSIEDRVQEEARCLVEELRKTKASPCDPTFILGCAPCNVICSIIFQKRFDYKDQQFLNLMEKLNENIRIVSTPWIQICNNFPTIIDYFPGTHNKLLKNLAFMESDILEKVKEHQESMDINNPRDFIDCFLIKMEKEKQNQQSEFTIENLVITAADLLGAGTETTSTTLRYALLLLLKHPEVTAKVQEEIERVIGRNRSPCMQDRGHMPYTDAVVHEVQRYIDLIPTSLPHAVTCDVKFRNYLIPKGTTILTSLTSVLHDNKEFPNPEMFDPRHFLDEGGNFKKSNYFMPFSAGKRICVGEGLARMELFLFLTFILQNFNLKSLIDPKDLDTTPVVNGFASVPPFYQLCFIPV

For `N[C@@]1(c2ccccc2Cl)CCC[C@@H](O)C1=O` [2R,6R-hydroxynorketamine, 2R,6R-2-(2-Chlorophenyl)-2-(amino)-6-hydroxycyclohexanone], the “inhibition of CYP2C19 (in words)” value [1] was “did not inhibit”, the “% Inhibition” value ([1]; 0.4 μM) was −2.01% and the “% Inhibition” value ([1]; 1 μM) was −1.66%. The “% Inhibition” value ([1]; 4 μM) was 1.85%, the “% Inhibition” value ([1]; 10 μM) was 6.69% and the “% Inhibition” value ([1]; 40 μM) was 8.25%. For the same compound, the “% Inhibition” value ([1]; 100 μM) was 16.1%, the “hepatic clearance in humans (in words)” value [2] was “does not undergo hepatic clearance” and the “substrate of p-gp or Breast Cancer Resistance Protein (BCRP) efflux transporters” value ([3]; Caco-2) was “not a substrate”. For the same compound, the “permeability (in words)” value ([3]; Caco-2 permeability assay) was “high”, the “Mean % Recovery” value ([3]; Direction = A2B) was 98.9% and the “Mean Papp” value ([3]; Direction = A2B) was 45.7 10^−6 cms^−1. The “Papp Replicate 1” value ([3]; Direction = A2B) was 49.1 10^−6 cms^−1, the “Papp Replicate 2” value ([3]; Direction = A2B) was 42.3 10^−6 cms^−1 and the “Mean % Recovery” value ([3]; Direction = B2A) was 103%. For the same compound, the “Mean Papp” value ([3]; Direction = B2A) was 50.7 10^−6 cms^−1, the “Papp Replicate 1” value ([3]; Direction = B2A) was 52.8 10^−6 cms^−1 and the “Papp Replicate 2” value ([3]; Direction = B2A) was 48.5 10^−6 cms^−1. The “inhibition of UGT1A1 (in words)” value [4] was “does not inhibit”, the “% Inhibition” value ([5]; 0.4 μM) was 11.5% and the “% Inhibition” value ([5]; 1 μM) was 8.44%. For the same compound, the “% Inhibition” value ([5]; 4 μM) was 15.7%, the “% Inhibition” value ([5]; 10 μM) was 25.7% and the “% Inhibition” value ([5]; 40 μM) was 43.7%. For the same compound, the “% Inhibition” value ([5]; 100 μM) was 57.5%, the IC50 ([5]; substrate midazolam) was 69 µM and the “inhibition of CYP2C8 (in words)” value [6] was “did not inhibit”. The “% Inhibition” value ([6]; 0.4 μM) was 5.63%, the “% Inhibition” value ([6]; 1 μM) was 4.91% and the “% Inhibition” value ([6]; 4 μM) was 12.5%. The “% Inhibition” value ([6]; 10 μM) was 8.33%, the “% Inhibition” value ([6]; 40 μM) was 8.35% and the “% Inhibition” value ([6]; 100 μM) was 2.08%. For the same compound, the CLint [7] was 4.72 μL/min/10^6 cells, the t1/2 [7] was 4.9 h and the “% Inhibition of Control Specific Binding” value [8] was 11%. For the same compound, the “% of Control Specific Binding” value [8] was 87.2%, the “% Inhibition of Control Specific Binding” value [9] was 2% and the “% of Control Specific Binding” value [9] was 102.0%. For the same compound, the “% Inhibition of Control Specific Binding” value [10] was −5%, the “% of Control Specific Binding” value [10] was 97.7% and the “inhibition of UGT2B7 (in words)” value [11] was “does not inhibit”. The “inhibition of CYP2C9 (in words)” value [12] was “did not inhibit”, the “% Inhibition” value ([12]; 0.4 μM) was 4.59% and the “% Inhibition” value ([12]; 1 μM) was 5.92%. The “% Inhibition” value ([12]; 4 μM) was 5.80%, the “% Inhibition” value ([12]; 10 μM) was 11.9% and the “% Inhibition” value ([12]; 40 μM) was −0.113%. The “% Inhibition” value ([12]; 100 μM) was −1.33%, the “% Inhibition of Control Specific Binding” value [13] was 5% and the “% of Control Specific Binding” value [13] was 100.9%. The “binding to 5HT2B receptor subtype (in words)” value [13] was “does not bind”, the “% Inhibition of Control Specific Binding” value [14] was 10% and the “% of Control Specific Binding” value [14] was 91.1%. The “binding to 5HT2C receptor subtype (in words)” value [14] was “does not bind”, the “compatibility with dicalcium phosphate and microcrystalline cellulose” value [15] was “compatibility” and the “compatibility with lactose monohydrate (DSC)” value ([15]; binary mix 1:2 API:Excipient) was “incompatible”. The “inhibition of CYP2D6 (in words)” value [16] was “did not inhibit”, the “% Inhibition” value ([16]; 0.4 μM) was 3.16% and the “% Inhibition” value ([16]; 1 μM) was 6.65%. For the same compound, the “% Inhibition” value ([16]; 4 μM) was 11.5%, the “% Inhibition” value ([16]; 10 μM) was 9.41% and the “% Inhibition” value ([16]; 40 μM) was 11.2%. For the same compound, the “% Inhibition” value ([16]; 100 μM) was 5.73%.
